Assay [1] has as its system cytokines at spinal cord injury site. Nature of the assay: Rat cytokine antibody array analysis of spinal cord tissue. To be noted: tail vein injection. The assay is classed as in vivo. As for the experimental part:
(§1) For the present experiment, male white mice (Sprague-Dawley 240-250 g, 7 weeks, 10 mice) were under general anesthetics by an intraperitoneal injection of Ketamin (80 mg/kg, Yuhan Corporation) and Rompun (7.4 mg/kg, Bayer Korea Corporation). Laminectomy was performed at spine T9-10 level to expose a spinal cord keeping intact dura. And then, rat was put on Spinal cord dropping device (NYU); spine processes at T8 and T11 sites were fixed by using a clamp, respectively; then, a rod (diameter 2 mm, weight 10 g) was dropped from 25 mm height vertical to dorsal part of spinal cord followed by suturing injury site muscle and skin. The rat of Sham-operated control group was performed only laminectomy at same area without damaging spinal cord injury (marked by ‘sham” in figures; hereinafter, the same as above).
(§2) Substance P (marked by ‘SP’ in figures; hereinafter, the same as above) dissolved in saline of 5 nmol/kg concentration was injected through tail vein at immediately, 24 hours, and 48 hours after a spinal cord injury for experimental groups. At sham control group, same volume of saline (marked by ‘vehicle’ in figures; hereinafter, the same as above) without Substance P was injected at same time points. Operation were performed on an electric heating pad of 37° C., and then rat were transferred to cage after awake from the anesthetic. • (2) Preparation of Tissue
A rat cytokine antibody array analysis was performed in order to investigate an effect of Substance P in expressing cytokine.
At immediately, 1 d, and 2d, Substance P or saline (the same volume without Substance P) was injected through tail vein using the same method as (1) of Example 1. After operating, the experimental group (4 rats/group) and the control (4 rats/group) were sacrificed at 1 d and 5d, respectively. The spinal cord tissue (1 cm) obtained from an animal was homogenized with a dissolution buffer solution (10% glycerol, 20 mM Tris [pH 8.0], 137 mM NaCl, 1% Nonidet P-40, 0.5 mM EDTA, 10 mM Na2P2O7, 10 mM NaF, 1 μg/ml aprotinin, 10 μg/ml leupeptin, 1 mM vanadate and 1 mM PMSF). A protein amount of supernatant was determined by BCA assay (Pierce). Subsequently, a cytokine assay was performed according to instructions of Ray Biotech Morcross GA protocol. A membrane was blocked with a blocking buffer solution, then 150 μg of a protein sample was added, and reacted for 2 hours at a room temperature. The membrane was washed and 1 ml of primary antibody conjugated with a biotin was added, and placed at 4° C. overnight. Next day, the membrane was washed, and reacted with 2 ml of streptoavidin conjugated with horseradish peroxidase for 30 minutes at a room temperature. The membrane was developed using enhanced chemiluminescence-type solution, and the film was exposed to Radiography. Using USA NIH Image and Image J software (Hong et al., 2009), density quantification of array was performed.

Assay [2] deals with spinal cord injury site tissue. Nature of the assay: Immunofluorescence staining of CSPG, CD206, GFAP, NF200 after spinal cord injury. Format: in vivo, rat. The settings on record: tail vein injection. As for the experimental part:
as §1, §2
Then, perfusion was performed by opening the of heart and pumping 200 ml of a physiological saline and 4% paraformaldehyde (Sigma) through right atrium of heart. Then, a segment of spinal cord with injury site was removed and put in 4% paraformaldehyde at 4° C. for 6 hours. Subsequently, spinal cords were washed with saline, and placed in 30% sucrose (Sigma) solution at 4° C. overnight. Next day, spinal cords were cut in a length of 1.5 cm in which the injured site is localized in epicenter followed by embedding in OCT compound (optimal cutting temperature compound, Sakura). The fixed tissues were cut in a thickness of 10 μm (Longitudinal section) or 20 μm (cross section) with Cryostat (Leica) and attached to slide. Finally, slides were stored at −80° C. • (3) Immunofluorescence Staining
The selected sections for immunofluorescence staining were washed with saline for three times, and blocked with 10% horse serum (Jackson ImmunoResearch) for 1 hour at a room temperature. ED1 antibody (1:200, Milipore), a marker for activated microglia/macrophage, was treated and placed at 4° C. overnight. Next day, slides were washed with saline, and treated with a secondary antibody conjugated with Alexa Fluor 488 (1:400, Invitrogen) or cyanine 3 (1:500, Jackson ImmunoResearch) for 1 hour at room temperature. […]

In assay [3] the test system is myelin sheath of nerve cell. Nature of the assay: Immunofluorescence staining of myelin base protein (MBP) after spinal cord injury. The assay is classed as in vivo, rat. The protocol: as §1
Substance P (marked by ‘SP’ in figures; hereinafter, the same as above) dissolved in saline of 5 nmol/kg concentration was injected through tail vein at immediately, 24 hours, and 48 hours after a spinal cord injury for experimental groups. At sham control group, same volume of saline (marked by ‘vehicle’ in figures; hereinafter, the same as above) without Substance P was injected at same time points. Operation were performed on an electric heating pad of 37° C., and then rat were transferred to cage after awake from the anesthetic. • (2) Preparation of Tissue […]

Where [4] appears, read: five days after spinal cord injury, vs control.
Setting [5] is: one day after spinal cord injury.
Where [6] appears, read: two weeks after spinal cord injury.

As to Substance P, the “amount of IL-10” value in assay [1] (5 d after spinal cord injury) is listed as “higher than the control”. In assay [1] (setting [4]), the “expression of IFN-γ” value was “slightly decreased” and the “expression of IL-1α” value is reported as “slightly decreased”. In assay [1] (setting [5]), the “amount of IL-6” value is listed as “meaningfully increased”, the “increase of amount of IL-4” value is on record as “two times” and the “increase of amount of IL-10” value is “ten times”. Besides, the GFAP-positive cells distribution result in assay [2] (after spinal cord injury) was “excluded from CD206-positive spinal cord injury site”. For the same substance, in assay [2] (setting [6]), the “CD206 and ED1 double-positive cells” value is reported as “gathered around an injury site”; the “CSPG-positive signal around an injury site” value is reported as “significantly decreased”. For the same substance, the neurofilament protein entry in assay [2] (vs control, exposed to CD206-positive cell field) is “well preserved”. Further, the “inhibition of tissue lose” value in assay [3] (at 2 mm rostal and caudal from the center) was “at least 50%”. In addition, the MBP-positive sheath result in assay [3] (tail vein injection, after spinal cord injury) is “well preserved”.
